Source: the NIST ThermoML archive (doi:10.1016/j.jct.2018.10.023)

Experiment: wn = mass fraction of the nth substance listed
Details: 101 kPa, Liquid, Digital holographic interferometer

CCC(C)CO (centres undefined) [2-methyl-1-butanol] + CCCCCCC
binary diffusion coefficient [m2/s]
Details | w1 = 0.05 | w1 = 0.15 | w1 = 0.25 | w1 = 0.35 | w1 = 0.45 | w1 = 0.55 | w1 = 0.65 | w1 = 0.75 | w1 = 0.85 | w1 = 0.95
288.15 K | 1.02e-09 | 8.91e-10 | 7.99e-10 | 6.91e-10 | 6.03e-10 | 5.26e-10 | 4.81e-10 | 4.52e-10 | 4.61e-10 | 4.83e-10
298.15 K | 1.24e-09 | 1.11e-09 | 1.01e-09 | 9.24e-10 | 8.43e-10 | 7.55e-10 | 7.02e-10 | 6.8e-10 | 6.9e-10 | 7.04e-10
308.15 K | 1.49e-09 | 1.34e-09 | 1.24e-09 | 1.15e-09 | 1.08e-09 | 9.81e-10 | 9.31e-10 | 9.25e-10 | 9.36e-10 | 9.41e-10
318.15 K | 1.73e-09 | 1.58e-09 | 1.5e-09 | 1.4e-09 | 1.33e-09 | 1.24e-09 | 1.17e-09 | 1.16e-09 | 1.18e-09 | 1.19e-09

CC(C)CCO [3-methylbutan-1-ol] + CCCCCCC
binary diffusion coefficient [m2/s]
Details | w1 = 0.05 | w1 = 0.15 | w1 = 0.25 | w1 = 0.35 | w1 = 0.45 | w1 = 0.55 | w1 = 0.65 | w1 = 0.75 | w1 = 0.85 | w1 = 0.95
288.15 K | 1.74e-09 | 1.25e-09 | 9.07e-10 | 6.95e-10 | 6.1e-10 | 5.7e-10 | 6.18e-10 | 6.65e-10 | 7.11e-10 | 7.46e-10
298.15 K | 1.99e-09 | 1.52e-09 | 1.17e-09 | 9.75e-10 | 8.69e-10 | 8.42e-10 | 8.91e-10 | 9.46e-10 | 9.85e-10 | 1.01e-09
308.15 K | 2.28e-09 | 1.83e-09 | 1.44e-09 | 1.27e-09 | 1.15e-09 | 1.13e-09 | 1.17e-09 | 1.22e-09 | 1.29e-09 | 1.32e-09
318.15 K | 2.54e-09 | 2.09e-09 | 1.75e-09 | 1.55e-09 | 1.43e-09 | 1.4e-09 | 1.46e-09 | 1.52e-09 | 1.56e-09 | 1.58e-09

[Cl-].[Li+] [lithium chloride] + O
298.15 K
Details | binary diffusion coefficient [m2/s]
w1 = 0.011 | 1.31e-09
w1 = 0.027 | 1.23e-09

[Cl-].[K+] [potassium chloride] + O
Details | binary diffusion coefficient [m2/s]
298.15 K, w1 = 0.025 | 1.85e-09

[Cl-].[Na+] [sodium chloride] + O
Details | binary diffusion coefficient [m2/s]
298.15 K, w1 = 0.018 | 1.47e-09
